# Where two headings read alike, the source gives them in different places.
# Legend:
# [1] = tested on: NQO1 mRNA in BEAS-2B cells; assay: Beas2B NQO1 mRNA cell based assay; parameters: species or system human; conditions: 24 h compound treatment, increase in NQO1 mRNA vs vehicle (0.1% DMSO), read-out: EC50
# Procedure, shortened: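 Relative NQO1 transcript level derived by ΔΔCT with human β-actin as internal control, using direct-lysate one-step RT-qPCR. Cells were BEAS-2B, plated overnight then treated with compound for 24 h.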
# [2] = molecular target: T1, human KEAP1 (N-term, residues 321-609) (Homo sapiens, UniProt Q14145); assay: biochemical;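 also: fluorescence polarization competition assay of Kelch domain binding to NRF2, 12-point 1:3 dilution series from 10 µM, read after 1 h at room temperature, floor 10 nM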
# T1 sequence (Q14145 321-609): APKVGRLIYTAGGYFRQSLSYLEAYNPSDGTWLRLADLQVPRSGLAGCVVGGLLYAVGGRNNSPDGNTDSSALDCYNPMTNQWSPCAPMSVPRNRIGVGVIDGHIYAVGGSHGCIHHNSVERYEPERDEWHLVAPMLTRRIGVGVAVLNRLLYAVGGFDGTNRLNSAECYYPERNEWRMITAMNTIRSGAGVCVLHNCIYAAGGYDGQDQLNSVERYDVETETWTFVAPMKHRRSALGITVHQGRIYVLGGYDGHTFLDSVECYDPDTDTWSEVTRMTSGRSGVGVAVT
# [3] = molecular target: T1, human KEAP1 (N-term, residues 321-609)
Compound,"EC50 ([1]; Homo sapiens, BEAS-2B, 24 h) [nM]",IC50 [2] [nM],EC50 [1] [nM],IC50 [3] [nM]
"Cn1nnc(COc2ccc(Cl)c3c2[C@@H](CN2CC4(CC4)CC2=O)N(C(=O)[C@@H]2CC[C@H](O)C[C@]2(C)C(=O)O)CC3)c1C(F)F [Example 223, (1S,2R,5S)-2-((S)-5-chloro-8-((5-(difluoromethyl)-1-methyl-1H-1,2,3-triazol-4-yl)methoxy)-1-((6-oxo-5-azaspiro[2.4]heptan-5-yl)methyl)-1,2,3,4-tetrahydroisoquinoline-2-carbonyl)-5-hydroxy-1-methylcyclohexane-1-carboxylic acid]",15,5,,
"Cn1nnc(COc2ccc(Cl)c3c2[C@@H](CN2CC4(CC4)CC2=O)N(C(=O)[C@@H]2CC[C@@H](O)C[C@]2(C)C(=O)O)CC3)c1C(F)F [Example 224, (1S,2R,5R)-2-((S)-5-chloro-8-((5-(difluoromethyl)-1-methyl-1H-1,2,3-triazol-4-yl)methoxy)-1-((6-oxo-5-azaspiro[2.4]heptan-5-yl)methyl)-1,2,3,4-tetrahydroisoquinoline-2-carbonyl)-5-hydroxy-1-methylcyclohexane-1-carboxylic acid]",42,5.8,,
"Cn1nnc(COc2ccc(Cl)c3c2[C@@H](CN2CC4(CC4)CC2=O)N(C(=O)[C@@H]2C[C@H](O)CC[C@]2(C)C(=O)O)CC3)c1C(F)F [Example 225, (1S,2R,4R)-2-((S)-5-chloro-8-((5-(difluoromethyl)-1-methyl-1H-1,2,3-triazol-4-yl)methoxy)-1-((6-oxo-5-azaspiro[2.4]heptan-5-yl)methyl)-1,2,3,4-tetrahydroisoquinoline-2-carbonyl)-4-hydroxy-1-methylcyclohexane-1-carboxylic acid]",110,6.5,,
"Cn1nnc(COc2ccc(Cl)c3c2[C@@H](CN2CC4(CC4)CC2=O)N(C(=O)[C@@H]2CCCO[C@@H]2C(=O)O)CC3)c1C(F)F [Example 226, (2S,3R)-3-((S)-5-chloro-8-((5-(difluoromethyl)-1-methyl-1H-1,2,3-triazol-4-yl)methoxy)-1-((6-oxo-5-azaspiro[2.4]heptan-5-yl)methyl)-1,2,3,4-tetrahydroisoquinoline-2-carbonyl)tetrahydro-2H-pyran-2-carboxylic acid]",14,5,,
"(1S,2R)-2-((S)-8- ((2,5-bis (difluoromethyl)-2H- 1,2,3-triazol-4-yl) methoxy)-5-chloro-1 ((2-oxopyrrolidin-1- yl)methyl)-1,2,3,4- tetrahydroisoquinoline- 2-carbonyl)-1- methylcyclohexane-1- carboxylic acid [Example 139]",,,140,5.7
"(1S,2R)-2-((S)- 8-((1,5-bis (difluoromethyl)- 1H-1,2,3-triazol-4-yl) methoxy)-5-chloro-1- ((2-oxopyrrolidin-1- yl)methyl)-1,2,3,4- tetrahydroisoquinoline- 2-carbonyl)-1- methylcyclohexane- 1-carboxylic acid [Example 193]",,,1.8,7.7
